# Earlier results, collected in patent US5346701A, “Transmucosal delivery of macromolecular drugs” (TheraTech, Inc., priority 1993, dated 1994).
# Columns and labels:
# [1] = tested on: antithrombin III (AT III); settings: clinically used heparin
# [2] = tested on: vascular smooth muscle cells
# [3] = tested on: delayed-typehypersensitivity
# platelets = settings: in vitro
# [4] = nasal membranes
compound,measurement,setting,value
heparin,proportion of heparin having high affinity for AT III,[1],Approximately 33%
same,proliferation of vascular smooth muscle cells,[2],inhibits the proliferation
same,proliferation of renal mesengial cells,renal mesengial cells,inhibits the proliferation
same,delayed-type hypersensitivity,[3],suppresses
same,angiogenesis,angiogenesis,inhibits angiogenesis
same,release of platelets,platelets,enhances the release of platelets
same,prolongation of partial thromboplastin time or release of plasma lipase activity,"colon of a baboon, without bile salt",not apparent
same,activity (partial thromboplastin time / plasma lipase),with sodium cholate or deoxycholate in the formulation,significant activity was detected
same,acceleration of rate of thrombin inactivation,thrombin,up to 2000 -fold
C[C@H](CCC(=O)O)[C@H]1CC[C@H]2[C@@H]3[C@H](O)C[C@@H]4C[C@H](O)CC[C@]4(C)[C@H]3CC[C@]12C [chenodeoxycholate],order of effectiveness as enhancer of insulin absorption,[4],deoxycholate<chenodeoxycholate<cholate<ursodeoxycholate
C[C@H](CCC(=O)O)[C@H]1CC[C@H]2[C@@H]3[C@@H](O)C[C@@H]4C[C@H](O)CC[C@]4(C)[C@H]3CC[C@]12C [ursodeoxycholate],order of effectiveness as enhancer of insulin absorption,[4],deoxycholate<chenodeoxycholate<cholate<ursodeoxycholate
C[C@H](CCC(=O)O)[C@H]1CC[C@H]2[C@@H]3[C@H](O)C[C@@H]4C[C@H](O)CC[C@]4(C)[C@H]3C[C@H](O)[C@]12C [cholate],order of effectiveness as enhancer of insulin absorption,[4],deoxycholate<chenodeoxycholate<cholate<ursodeoxycholate
